Data reported in PubChem BioAssay (NCI).
“And” between values parts separate entries of the source, which are not always exact repeats. Equal values may be shown once.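 The compound was tested at five concentrations on cells cultured in 96-well plates, with a 48-hour exposure period. Here, GI50 denotes the concentration required for 50% inhibition of growth. TGI is the concentration that stops growth completely.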

Key:
Assay in all cases: NCI anticancer screen, dose series, 48 h
786-0 renal = test system: 786-0 renal
OVCAR-3 ovarian = test system: OVCAR-3 ovarian
COLO 205 colon = test system: COLO 205 colon
EKVX NSCLC = test system: EKVX NSCLC
NCI-H460 lung = test system: NCI-H460 lung
SF-268 CNS = test system: SF-268 CNS
SK-MEL-28 melanoma = test system: SK-MEL-28 melanoma
K-562 leukemia = test system: K-562 leukemia
HOP-62 NSCLC = test system: HOP-62 NSCLC
CAKI-1 renal = test system: CAKI-1 renal

SMILES	GI50 (786-0 renal)	TGI (786-0 renal)	GI50 (OVCAR-3 ovarian)	TGI (OVCAR-3 ovarian)	TGI (COLO 205 colon) [µM]	TGI (EKVX NSCLC) [µM]	GI50 (NCI-H460 lung)	TGI (NCI-H460 lung)	GI50 (SF-268 CNS)	TGI (SF-268 CNS) [µM]	GI50 (SK-MEL-28 melanoma)	TGI (SK-MEL-28 melanoma) [µM]	GI50 (K-562 leukemia)	TGI (K-562 leukemia) [µM]	GI50 (HOP-62 NSCLC)	TGI (HOP-62 NSCLC)	TGI (CAKI-1 renal)	GI50 (COLO 205 colon) [µM]	GI50 (EKVX NSCLC) [µM]	GI50 (CAKI-1 renal) [µM]
COc1ccc(-c2cc(-c3ccco3)c(C#N)c(=O)n2C2OC(COC(C)=O)C(OC(C)=O)C(OC(C)=O)C2OC(C)=O)cc1 (stereo not drawn)	> 100 µM and 29.3 µM	> 100 µM	> 100 µM and 18.1 µM	> 100 µM and 44.3 µM	> 100	> 100	35.8 µM and 8.76 µM	> 100 µM and 81 µM	> 100 µM and 28.2 µM	> 100	> 100 µM and 26.7 µM	> 100	48.1 µM and 8.84 µM	> 100	> 100 µM and 23 µM	> 100 µM and 79.2 µM	> 100 µM	–	–	–
COC(=O)c1cc2c3cc(Cl)ccc3[nH]c2c2ncccc12	> 100 µM	> 100 µM	> 100 µM	> 100 µM	> 100	> 100	> 100 µM	> 100 µM	> 100 µM	> 100	> 100 µM	> 100	> 100 µM	> 100	> 100 µM	> 100 µM	> 100 µM	> 100	> 100	> 100
CC(C)OC(=O)NNc1c(Cl)cc(Cl)cc1Cl	–	> 100 µM	–	> 100 µM	> 100	> 100	–	> 100 µM	–	> 100	–	> 100	–	> 100	–	> 100 µM	> 100 µM	–	–	–
CC(C)CC1CC2C(=O)N(c3ccccc3)C(=O)C2c2[nH]c3ccccc3c21 (stereo not drawn)	–	> 100 µM	–	42.7 µM	> 100	> 100	–	> 100 µM	–	> 100	–	> 55.7	–	> 42.7	–	47.8 µM	72.7 µM	–	–	–
COC(=O)N1C=CC2=C(C)C3Nc4ccccc4C3C(C)=C2C1 (stereo not drawn)	–	2.16 µM	–	3.69 µM	6.66	> 100	–	11.6 µM	–	74.2	–	> 100	–	14.5	–	12.6 µM	> 100 µM	–	–	–
C(#Cc1ccccc1C#Cc1cnccn1)c1cnccn1	30.5 µM	> 100 µM	21.5 µM	> 63.1 µM	> 100	> 100	18.3 µM	> 71.9 µM	17.3 µM	55.3	46.9 µM	> 100	9.02 µM	> 44.3	26.3 µM	85.8 µM	51.5 µM	54.8	35.3	12.5
CC1(C)CCOC(Sc2ccccc2)C1 (stereo not drawn)	–	> 100 µM	–	> 100 µM	> 100	> 100	–	> 100 µM	–	> 100	–	> 100	–	> 100	–	> 100 µM	> 100 µM	–	–	–
CC1Nc2ccccc2NC1C=C(C#N)C#N (stereo not drawn)	–	29.6 µM	–	29.4 µM	34.4	37.1	–	42.5 µM	–	29.9	–	31	–	48.5	–	43.7 µM	28.9 µM	–	–	–
CN1C=C(C(N)=O)Cc2ccsc21	–	> 100 µM	–	> 100 µM	> 100	> 100	–	> 100 µM	–	> 100	–	> 100	–	> 100	–	> 100 µM	> 100 µM	–	–	–
O=C1c2ccccc2C(=O)N1CCN(CCN1C(=O)c2ccccc2C1=O)Cc1ccccc1	–	> 100 µM	–	> 100 µM	> 100	> 100	–	> 100 µM	–	> 100	–	> 100	–	> 100	–	> 100 µM	> 100 µM	–	–	–
CCOC(=O)c1ccc(N[C@@H]2c3cc4c(cc3C(c3cc(OC)c(O)c(OC)c3)[C@H]3C(=O)OCC32)OCO4)cc1 (stereo partly drawn)	0.199 µM and 0.492 µM	0.66 µM and 2.12 µM	–	6.71 µM	7.68	9.17	0.0385 µM	1.33 µM	0.394 µM	15.7	0.935 µM	8.59	0.662 µM and 1.44 µM	27.2	0.212 µM and 0.129 µM	0.709 µM and 0.79 µM	0.854 µM and 3.88 µM	0.833	0.591	0.109
O=C1CC2=CCCC2O1 (stereo not drawn)	–	> 100 µM	–	> 100 µM	> 100	> 100	–	> 100 µM	–	> 100	–	> 100	–	> 100	–	> 100 µM	> 100 µM	–	–	–
O=c1oc2cc(O)ccc2cc1-c1nc2ccccc2o1	–	> 100 µM	–	61.8 µM	80.3	> 100	–	> 100 µM	–	> 100	–	> 100	–	> 100	–	> 100 µM	> 100 µM	–	–	–
NNC(=S)N/N=C(\c1nc2ccc(Cl)cc2[nH]c1=O)C(O)c1cccc([N+](=O)[O-])c1 (stereo not drawn)	–	> 62.5 µM	–	> 100 µM	> 58.4	> 100	–	> 100 µM	–	> 79.5	–	> 79.4	–	> 70.2	–	> 55.8 µM	> 100 µM	–	–	–
CC[C@@]1(O)C(=O)OCc2c1cc1n(c2=O)Cc2cc3c(N)c(OC)ccc3nc2-1	< 0.0157 µM	0.0738 µM	0.328 µM	1.65 µM	2.69	> 100	0.013 µM	0.111 µM	0.0152 µM	–	0.466 µM	–	0.152 µM	–	< 0.01 µM	0.037 µM	0.796 µM	0.263	0.574	0.0251
CC(=O)OC1C(C)OC(Oc2c(-c3ccc(O)cc3)oc3cc(O)cc(O)c3c2=O)C(O)C1OC(C)=O (stereo not drawn)	48.2 µM	> 100 µM	20.6 µM	45.3 µM	> 100	> 100	32.5 µM	> 100 µM	27 µM	> 89.5	29 µM	> 100	30.8 µM	> 100	35.9 µM	> 100 µM	> 100 µM	> 67.3	54.2	41.4
Nc1ncnc2occ(-c3ccc(NC(=O)Nc4cccc(C(F)(F)F)c4)cc3)c12	4.46 µM	10 µM	4.79 µM	9.72 µM	9.16	14.5	3.46 µM	9.3 µM	3.54 µM	9.83	4.89 µM	12.7	1.3 µM	25	5.09 µM	10 µM	13 µM	4.53	4.46	2.29
